Source: patent US8716318B2, “Pyridone sulfonamides and pyridone sulfamides as MEK inhibitors” (Ardea Biosciences, priority 2006, dated 2014)

Tests used:
[1] = molecular target: T1, human GST-MEK1^CA (Ser218Asp, Ser222Asp) (Homo sapiens, UniProt Q02750, S218D/S222D); experiment: MEK1 kinase assay (generation of IC50 data, 33P filter assay with ERK2 and MBP); format: biochemical; conditions: ATP
T1 construct: GST; made in house; host or cells: Escherichia coli
Text: Materials and preparation of reagents: Human GST-MEK1 and the constitutively active allele GST-MEK1^CA (harboring the mutations Ser218Asp and Ser222Asp) were subcloned into the yeast expression vector pGEM4Z (Promega, Madison, Wis.) from the wild type human MEK1 cDNA. GST-MEK1^CA was expressed in Escherichia coli and partially purified using Glutathione Sepharose 4B affinity resin (Amersham Pharmacia Biotech, Piscataway, N.J.). The ERK2 allele was subcloned from MAPK2/Erk2 cDNA (wild type) in pUSEamp (Upstate Biotechnology, Inc., Waltham, Mass.) into the vector pET21a (Novagen, Madison, Wis.) resulting in an N-terminal histidine-tagged mouse ERK2 allele. ERK2 was expressed and purified to homogeneity [Zhang, 1993 #33]. Myelin basic protein (MBP) was purchased from Gibco BRL (Rockville, Md.). EasyTides adenosine 5′-triphosphate (ATP) ([γ-^33P]) (NEN Perkin Elmer, Wellesley, Mass.) was the source of radiolabel for all kinase reactions. Activated Raf-1 (truncated) and activated MAPKinase 2/ERK2 were purchased from Upstate, Inc. (Lake Placid, N.Y.). 4-20% Criterion Precast gels were purchased from Bio-Rad (Hercules, Calif.).
Determination of enzymatic activity: Compounds were diluted from dimethylsulfoxide (DMSO) stocks into 1×HMNDE (20 mM HEPES pH 7.2, 1 mM MgCl2, 100 mM NaCl, 1.25 mM DTT, 0.2 mM EDTA). A typical 25-microliter assay contained 0.002 nanomoles MEK1^CA, 0.02 nanomoles ERK2, 0.25 nanomoles MBP, 0.25 nanomoles unlabeled ATP, and 0.1 μCi [γ^33P] ATP. The screening assay essentially comprised four additions. Five μl of diluted compound were dispensed to 96-well assay plates. Ten μl of 2.5× enzyme cocktail (MEK1^CA and ERK2 only) were then added to each well followed by a pre-incubation for 30 minutes at ambient temperature. Ten μl of 2.5× substrate cocktail (labeled and unlabeled ATP plus MBP) were then added, followed by incubation for 60 minutes at ambient temperature. Finally, 100 μl of 10% trichloroacetic acid (TCA) were added and incubated for 30 minutes at room temperature to halt the reaction and precipitate radiolabeled protein products. Reaction products were harvested on glass fiber 96 well filter plates prewetted with water and 1% pyrophosphate. The filter plate was then washed 5 times with water. Water was displaced by absolute ethanol and the plate was allowed to air dry for 30 minutes at room temperature. A back seal was applied manually and 40 μl of scintillation cocktail were dispensed to each well. A top seal was applied and the plate was counted in the TopCount for two seconds per well.

[2] = EC50 (no method described)
THP-1 = experiment: Growth inhibition assay (GI50), THP-1; format: cell-based; conditions: Homo sapiens
A375 cells = experiment: Growth inhibition assay (GI50), A375 cells, CellTiterGlo; format: cell-based; conditions: Homo sapiens, A-375, 48 hr, ATP levels
Protocol: For growth inhibition experiments, A375 cells were plated in white 384-well microplates at 1000 cells/[…]/well. After 24 hr, […] of a 5× drug stock solution was added. All drugs were initially prepared as 200× stocks in DMSO, such that final DMSO concentration was 0.5%. Cells were incubated for 48 hr at 37° C. and ATP levels were determined using CellTiterGlo (Promega, Madison, Wis.). A control MEK inhibitor was used to determine the ATP level corresponding to full growth inhibition and the concentration of test compound that gave ATP levels midway between full growth inhibition and vehicle only ATP levels was determined to be the GI50 using non-linear regression (GraphPad Prism 4).

T1 sequence (Q02750 whole entry S218D/S222D): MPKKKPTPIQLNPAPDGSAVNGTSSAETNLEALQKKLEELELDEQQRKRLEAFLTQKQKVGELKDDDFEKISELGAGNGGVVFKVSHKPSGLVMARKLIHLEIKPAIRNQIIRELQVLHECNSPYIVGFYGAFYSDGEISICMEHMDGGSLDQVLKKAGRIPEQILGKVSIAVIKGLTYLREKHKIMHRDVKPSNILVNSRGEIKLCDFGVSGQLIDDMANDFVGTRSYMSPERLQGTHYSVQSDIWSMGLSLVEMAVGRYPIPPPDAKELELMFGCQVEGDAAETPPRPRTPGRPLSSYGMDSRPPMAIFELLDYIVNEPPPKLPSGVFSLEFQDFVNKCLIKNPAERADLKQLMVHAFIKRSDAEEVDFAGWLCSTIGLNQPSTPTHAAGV

| Compound | IC50 [1] [nM] | EC50 [2] [nM] | GI50 (THP-1) [nM] | GI50 (A375 cells) [nM] |
| --- | --- | --- | --- | --- |
| Cn1cc(NS(=O)(=O)C2CC2)c(Nc2ccc(Br)cc2F)cc1=O [Example 8, Cyclopropanesulfonic acid [4-(4-bromo-2-fluoro-phenylamino)-1-methyl-6-oxo-1,6-dihydro-pyridin-3-yl]-amide] | > 1000 | – | – | – |
| Cn1cc(NS(=O)(=O)C2CC2)c(Nc2ccc(Br)cc2F)c(Cl)c1=O [Example 3, N-(5-chloro-4-(2-fluoro-4-bromophenylamino)-1-methyl-6-oxo-1,6-dihydropyridin-3-yl)cyclopropanesulfonamide] | 500 to 1000 | 100 to 500 | > 1000 | > 1000 |
| Cn1cc(NS(=O)(=O)C2CC2)c(Nc2ccc(I)cc2F)c(Cl)c1=O [Example 9, Cyclopropanesulfonic acid [5-chloro-4-(2-fluoro-4-iodo-phenylamino)-1-methyl-6-oxo-1,6-dihydro-pyridin-3-yl]-amide] | < 100 | < 100 | > 1000 | 500 to 1000 |
| Cn1cc(NS(=O)(=O)C2(CC(O)CO)CC2)c(Nc2ccc(I)cc2F)cc1=O (stereo not drawn) [Example 2, 1-(2,3-dihydroxypropyl)-N-(4-(2-fluoro-4-iodophenylamino)-1-methyl-6-oxo-1,6-dihydropyridin-3-yl)cyclopropane-1-sulfonamide] | 500 to 1000 | 500 to 1000 | > 1000 | > 1000 |
| CN(C)S(=O)(=O)Nc1cn(C)c(=O)cc1Nc1ccc(I)cc1F [Example 6, N-(4-(2-fluoro-4-iodophenylamino)-1-methyl-6-oxo-1,6-dihydropyridin-3-yl)dimethyl-1-sulfamide] | > 1000 | 500 to 1000 | 100 to 500 | 500 to 1000 |
| Cn1cc(NS(=O)(=O)C2CC2)c(Nc2ccc(I)cc2F)cc1=O [Example 1, N-(4-(2-fluoro-4-iodophenylamino)-1-methyl-6-oxo-1,6-dihydropyridin-3-yl)cyclopropanesulfonamide] | 500 to 1000 | < 100 | < 100 | < 100 |
| Cn1cc(NS(=O)(=O)C2CC2)c(Nc2ccc(I)cc2F)c(F)c1=O [Example 4, N-(5-fluoro-4-(2-fluoro-4-iodophenylamino)-1-methyl-6-oxo-1,6-dihydropyridin-3-yl)cyclopropanesulfonamide] | < 100 | < 100 | > 1000 | < 100 |
| Cn1cc(NS(=O)(=O)C2(CC(=O)CO)CC2)c(Nc2ccc(I)cc2F)c(F)c1=O [Example 12, 1-(3-Hydroxy-2-oxo-propyl)-cyclopropanesulfonic acid [5-fluoro-4-(2-fluoro-4-iodo-phenylamino)-1-methyl-6-oxo-1,6-dihydro-pyridin-3-yl]-amide] | < 100 | < 100 | – | – |
| Cn1cc(NS(=O)(=O)C2CC2)c(Nc2ccc(Br)cc2F)c(F)c1=O [Example 7, Cyclopropanesulfonic acid [4-(4-bromo-2-fluoro-phenylamino)-5-fluoro-1-methyl-6-oxo-1,6-dihydro-pyridin-3-yl]-amide] | 500 to 1000 | – | > 1000 | > 1000 |
| Cc1c(Nc2ccc(I)cc2F)c(NS(=O)(=O)C2CC2)cn(C)c1=O [Example 5, N-(4-(2-fluoro-4-iodophenylamino)-1,5-dimethyl-6-oxo-1,6-dihydropyridin-3-yl)cyclopropanesulfonamide] | < 100 | < 100 | – | – |
| Cn1cc(NS(=O)(=O)C2(CC(O)CO)CC2)c(Nc2ccc(I)cc2F)c(F)c1=O (stereo not drawn) [Example 11, 1-(2,3-Dihydroxy-propyl)-cyclopropanesulfonic acid [5-fluoro-4-(2-fluoro-4-iodo-phenylamino)-1-methyl-6-oxo-1,6-dihydro-pyridin-3-yl]-amide] | < 100 | 100 to 500 | – | – |
| Cc1c(Nc2ccc(I)cc2F)c(NS(=O)(=O)C2(Cl)CC2)cn(C)c1=O [Example 10, 1-Chloro-Cyclopropanesulfonic acid [4-(2-fluoro-4-iodo-phenylamino)-1,5-dimethyl-6-oxo-1,6-dihydro-pyridin-3-yl]-amide] | 100 to 500 | < 100 | – | – |
| Cn1cc(NS(=O)(=O)NCC(O)CO)c(Nc2ccc(I)cc2F)cc1=O (stereo not drawn) [Example 13] | > 1000 | – | > 1000 | > 1000 |
